Data taken from US20100216160A1, “METHOD FOR THE SCREENING […] ACTIVITY-MODULATING AGENTS AND MEANS FOR CARRYIING OUT SAID METHOD” (CYTOMICS SYSTEMS, priority 2005, published 2010).
Residues, ends and D or L forms follow the SMILES beside them. *: point of attachment. Cbz = O=C(OCc1ccccc1)*

Experiments:
Format in all cases: cell-based, Saccharomyces cerevisiae
[1] = system: proteasome of yeast cells (CYS344 strain, mAG-p21[6KR]^WAF1/Cip1 fusion protein); assay: Degradation of mAG-p21[6KR]WAF1/Cip1 fusion protein in CYS344 yeast cells, epifluorescence microscopy; conditions: 50 μM MG132 added with 2% glucose after 120 minutes galactose, 0, 60, 120, 180 minutes after glucose
Protocol: The yeast cells of the CYS344 strain were cultured in minimal medium in the presence of galactose as a carbon source for 120 minutes.
(§1) At the end of these 120 minutes, 2% glucose was added to the culture, in the presence and in the absence of 50 μM of a known proteasome inhibitor, the MG132.
The cells were observed using an epifluorescence microscope (fluorescent microscope Nikon Eclipse fitted with an Omega XF116 filter). All the pictures were saved on a Hamamastu® camera using similar settings, then analyzed with the LUCIA G software, immediately before adding glucose (0 minute), and 60, 120 and 180 minutes (60, 120, 180 minutes) following the addition of glucose. The presence of MG132 in the culture is indicated by MG132″.

[2] = system: proteasome of the recombinant yeast cells (CYS343 strain, mAG-p21^WAF1/Cip1 fusion protein); assay: Degradation of mAG-p21WAF1/Cip1 fusion protein in CYS343 yeast cells, immunoblotting (Western blotting); conditions: 50 μM MG132 added with 2% glucose after 120 minutes galactose, 30, 60, 120 and 150 minutes after glucose
Protocol: (§2) The degradation of the fusion proteins comprising p21^WAF1/Cip1 or p21[6KR]^WAF1/Cip1 fused with mAG by the proteasome of the recombinant yeast cells of CYS 344 and CYS 343 strains was controlled by an immunoblotting technique, in the presence or in the absence of a proteasome inhibitor, the Mg132 compound.
(§3) All the yeast strains used were cultured and analyzed in a similar way.
(§4) The cells were cultured in minimal medium in the presence of galactose as a carbon source for 120 minutes.
(§5) At the end of these 120 minutes, 2% glucose was added to the culture, in the presence and in the absence of 50 μM of a known proteasome inhibitor, the Mg 132.
FIG. 3B illustrates the results obtained with the CYS343 recombinant yeast strain. Total proteins were prepared before adding galactose (0), 60 and 120 minutes following the addition of galactose (+galactose 0, 60, 120) and 30, 60, 120 and 150 minutes (+glucose, 30, 60, 120, 150) following the addition of glucose.
(§6) These proteins were analyzed by immunoblotting technique (“Western blotting”) using an antibody that recognized the p21^WAF1/Cip1 part of the fusion proteins (noted “mAG-p21^WAF1/Cip1” or “mAG-p21[6KR]^WAF1/Cip1” on FIG. 3).
(§7) The presence of MG132 in the culture is indicated by “+MG132” on FIG. 3. […]

[3] = system: proteasome of the recombinant yeast cells (CYS344 strain, mAG-p21[6KR]^WAF1/Cip1 fusion protein); assay: Degradation of mAG-p21[6KR]WAF1/Cip1 fusion protein in CYS344 yeast cells, immunoblotting (Western blotting); conditions: 50 μM MG132 added with 2% glucose after 120 minutes galactose, 30, 60 and 120 minutes after glucose
Protocol: as §2, §3, §4, §5
The results are given on FIG. 3 (FIG. 3A and FIG. 3B). FIG. 3A illustrates the results obtained with the CYS344 recombinant yeast strain.
Total proteins were prepared before adding galactose (0), 60 and 120 minutes following the addition of galactose (+galactose 0, 60, 120) and 30, 60 and 120 minutes (+glucose, 30, 60, 120) following the addition of glucose.
as §6, §7

[4] = system: proteasome of yeast cells (CYS344 strain, mAG-p21[6KR]^WAF1/Cip1 fusion protein); assay: Flow cytometric quantification (FACS) of fluorescence of mAG-p21[6KR]WAF1/Cip1 fusion protein in CYS344 yeast cells; conditions: 50 μM MG132 added with 2% glucose after 120 minutes galactose, time D1h, D2h, D3h
Protocol: (§8) The yeast cells were cultured in the presence or in the absence of the MG132 proteasome inhibitor.
(§9) All the cells were cultured in minimal medium in the presence of galactose as a carbon source for 120 minutes.
as §1
(§10) The fluorescence emitted by the cells was quantified using a FacsCalibur flow cytometer (Beckton-Dickinson), immediately before adding galactose (I0), 1 and 2 hour(s) following the addition of galactose (I1 and I2) and 1, 2 and 3 hours (D1, D2 and D3) following the addition of glucose. The presence of Mg132 in the culture is indicated by “+MG132”. The fluorescence is expressed in arbitrary units.

[5] = system: proteasome of yeast cells (CYS343 strain, mAG-p21^WAF1/Cip1 fusion protein); assay: Flow cytometric quantification (FACS) of fluorescence of mAG-p21WAF1/Cip1 fusion protein in CYS343 yeast cells; conditions: 50 μM MG132 added with 2% glucose after 120 minutes galactose, time D1h, D2h, D3h
Protocol: as §8, §9, §1, §10

CC(C)C[C@@H](C=O)NC(=O)[C@H](CC(C)C)NC(=O)[C@H](CC(C)C)NC(=O)OCc1ccccc1 [MG132] (Cbz-Leu-Leu-Leu-aldehyde)
fluorescence signal intensity of mAG-p21[6KR]WAF1/Cip1 fusion protein versus culture time (epifluorescence microscopy) [1]: fluorescence signal intensity versus culture time was maintained | degradation of the mAG-p21[wt]WAF1/Cip1 fusion protein (Western blotting) [2]: inhibit the degradation of the fusion protein | degradation of the mAG-p21[6KR]WAF1/Cip1 fusion protein (Western blotting) [3]: inhibit the degradation of the fusion protein | degradation of the mAG-p21[6KR]WAF1/Cip1 fusion protein (fluorescence, flow cytometry) [4]: strongly inhibited | degradation of the mAG-p21WAF1/Cip1 fusion protein (fluorescence, flow cytometry) [5]: strongly inhibited
